# From patent EP0801066A1, “Heterocyclic substituted benzothiophenes and pharmaceutical compositions” (ELI LILLY AND COMPANY, priority 1996, dated 1997)
# Marks after values point to notes of the source that are not given here.
# Key:
# ovariectomized rats [1] = assay: Uterine weight in ovariectomized rat post-menopausal model, 4-day oral dosing; format: in vivo, Sprague Dawley rats; conditions: for Increase in Uterine Weight (%): daily for 4 days, versus ovariectomized controls
# Experimental: In the examples illustrating the methods, a post-menopausal model was used in which effects of different treatments upon circulating lipids were determined.
# (§1) Seventy-five day old female Sprague Dawley rats (weight range of 200 to 225g) are obtained from Charles River Laboratories (Portage, MI). The animals are either bilaterally ovariectomized (OVX) or exposed to a Sham surgical procedure at Charles River Laboratories, and then shipped after one week. Upon arrival, they are housed in metal hanging cages in groups of 3 or 4 per cage and have ad libitum access to food (calcium content approximately 0.5%) and water for one week. Room temperature is maintained at 22.2° ± 1.7° C with a minimum relative humidity of 40%. The photoperiod in the room is 12 hours light and 12 hours dark.
# (§2) Dosing Regimen Tissue Collection. After a one week acclimation period (therefore, two weeks post-OVX) daily dosing with test compound is initiated. 17α-ethynyl estradiol or the test compound is given orally, unless otherwise stated, as a suspension in 1% carboxymethylcellulose or dissolved in 20% cyclodextrin. Animals were dosed daily for 4 days. Following the dosing regimen, animals are weighed and anesthetized with a ketamine: Xylazine (2:1, V:V) mixture and a blood sample is collected by cardiac puncture. The animals are then sacrificed by asphyxiation with CO2, the uterus is removed through a midline incision, and a wet uterine weight is determined.
# [2] = tested on: Uterine Eosinophil Peroxidase (EPO); assay: Uterine Eosinophil Peroxidase (EPO) Assay in ovariectomized rats; format: in vivo, Sprague Dawley rats; conditions: for Serum Eosinophil (Vmax): oral, daily for 4 days, eosinophil peroxidase Vmax
# Source text: as §1, §2
# Uterine Eosinophil Peroxidase (EPO) Assay. Uteri are kept at 4° C until time of enzymatic analysis. The uteri are then homogenized in 50 volumes of 50 mM Tris buffer (pH - 8.0) containing 0.005% Triton X-100. Upon addition of 0.01% hydrogen peroxide and 10 mM O-phenylenediamine (final concentrations) in Tris buffer, increase in absorbance is monitored for one minute at 450 nm. The presence of eosonophils in the uterus is an indication of estrogenic activity of a compound. The maximal velocity of a 15 second interval is determined over the initial, linear portion of the reaction curve.
# Serum cholesterol = Serum cholesterol analysis in ovariectomized rats (hyperlipidemia); format: in vivo, Sprague Dawley rats; conditions: oral; for Decrease in Cholesterol (%): daily for 4 days, serum cholesterol versus ovariectomized controls
# Source text: as §1, §2
# Cholesterol Analysis. Blood samples are allowed to clot at room temperature for 2 hours, and serum is obtained following centrifugation for 10 minutes at 3000 rpm. Serum cholesterol is determined using a Boehringer Mannheim Diagnostics high performance cholesterol assay. Briefly the cholesterol is oxidized to cholest-4-en-3-one and hydrogen peroxide. The hydrogen peroxide is then reacted with phenol and 4-aminophenazone in the presence of peroxidase to produce a p-quinone imine dye, which is read spectrophotemetrically at 500 nm. Cholesterol concentration is then calculated against a standard curve. The entire assay is automated using a Biomek Automated Workstation.
# [3] = tested on: MCF-7 breast adenocarcinoma cells; assay: MCF-7 Proliferation Assay (tritiated thymidine incorporation); format: cell-based; conditions: Homo sapiens, MCF7; 48 hours with drug, 4 hours tritiated thymidine pulse; read-out: IC50, inhibition of the growth of MCF-7 cells
# Experimental: MCF-7 breast adenocarcinoma cells (ATCC HTB 22) are maintained in MEM (minimal essential medium, phenol red-free, Sigma, St. Louis, MO) supplemented with 10% fetal bovine serum (FBS) (V/V), L-glutamine (2 mM), sodium pyruvate (1 mM), HEPES {(N-[2-hydroxyethyl]piperazine-N'-[2-ethanesulfonic acid]10 mM}, non-essential amino acids and bovine insulin (1 ug/mL) (maintenance medium). Ten days prior to assay, MCF-7 cells are switched to maintenance medium supplemented with 10% dextran coated charcoal stripped fetal bovine serum (DCC-FBS) assay medium) in place of 10% FBS to deplete internal stores of steroids. MCF-7 cells are removed from maintenance flasks using cell dissociation medium (Ca^++/Mg^++ free HBSS (phenol red-free) supplemented with 10 mM HEPES and 2 mM EDTA). Cells are washed twice with assay medium and adjusted to 80,000 cells/mL. Approximately 100 µL (8,000 cells) are added to flat-bottom microculture wells (Costar 3596) and incubated at 37° C in a 5% CO2 humidified incubator for 48 hours to allow for cell adherence and equilibration after transfer. Serial dilutions of drugs or DMSO as a diluent control are prepared in assay medium and 50 µL transferred to triplicate microcultures followed by 50 µL assay medium for a final volume of 200 µL. […] Samples are counted by liquid scintillation using a Wallac BetaPlace β counter. […]
# ovariectomized rats [4] = assay: Osteoporosis Test Procedure: femur density in ovariectomized rats, 35-day dosing; format: in vivo, Sprague Dawley rats; conditions: oral, in 20% hydroxypropyl β-cyclodextrin, daily for 35 days
# Source text: Seventy-five day old female Sprague Dawley rats (weight range of 200 to 225g) are obtained from Charles River Laboratories (Portage, MI). The animals are either bilaterally ovariectomized (OVX) or exposed to a Sham surgical procedure at Charles River Laboratories, and then shipped after one week. Upon arrival, they are housed in metal hanging cages in groups of 3 or 4 per cage and have ad libitum access to food (calcium content approximately 0.5%) and water for one week. Room temperature is maintained at 22.2° ± 1.7° C with a minimum relative humidity of 40%. The photoperiod in the room is 12 hours light and 12 hours dark. Following the General Preparation Procedure, infra, the rats are treated daily for 35 days (6 rats per treatment group) and sacrificed by carbon dioxide asphyxiation on the 36th day. The 35 day time period is sufficient to allow maximal reduction in bone density, measured as described herein. At the time of sacrifice, the uteri are removed, dissected free of extraneous tissue, and the fluid contents are expelled before determination of wet weight in order to confirm estrogen deficiency associated with complete ovariectomy. […] The right femurs are excised and digitilized x-rays generated and analyzed by an image analysis program (NIH image) at the distal metaphysis. The proximal aspect of the tibiae from these animals are also scanned by quantitative computed tomography. […]
# [5] = ovariectomized rats, EE2 at 0.1 mg/kg/day
SMILES,Increase in Uterine Weight (%) (ovariectomized rats [1]; dose 0.1 mg/kg),Increase in Uterine Weight (%) (ovariectomized rats [1]; dose 1.0 mg/kg),Increase in Uterine Weight (%) (ovariectomized rats [1]; dose 10.0 mg/kg),Serum Eosinophil (Vmax) ([2]; dose 0.1 mg/kg),Serum Eosinophil (Vmax) ([2]; dose 1.0 mg/kg),Serum Eosinophil (Vmax) ([2]; dose 10.0 mg/kg),Decrease in Cholesterol (%) (Serum cholesterol; dose 0.1 mg/kg),Decrease in Cholesterol (%) (Serum cholesterol; dose 1.0 mg/kg),Decrease in Cholesterol (%) (Serum cholesterol; dose 10.0 mg/kg),IC50 [3] [nM],uterine weight compared to the ovariectomized animals (in words) (ovariectomized rats [1]; [5]),eosinophil infiltration into the uterus (in words) ([2]; stromal layer of ovariectomized rat uteri),serum cholesterol compared to the ovariectomized animals (in words) (Serum cholesterol; [5]),bone loss / reduction in femur density after ovariectomy (in words) (ovariectomized rats [4])
"O=C(c1ccc(OCCN2CCCCC2)nc1)c1c(-c2ccc(O)cc2)sc2cc(O)ccc12 [Prep. 1, [2-(4-Hydroxyphenyl)-6-hydroxybenzo[b]thien-3-yl][2-[2-(1-piperidinyl)ethoxy]pyridin-5-yl]methanone]",80.3* %,91.4* %,80.8* %,48.0*,70.5*,55.8*,57.1* %,66.1* %,61.7* %,10,–,–,–,–
"C#C[C@]1(O)CC[C@H]2[C@@H]3CCc4cc(O)ccc4[C@H]3CC[C@@]21C [EE2, 17-a-ethynyl estradiol, reference compound]",182.1* %,–,–,211.1*,–,–,87.4* %,–,–,–,substantially greater than the uterine weight of the ovariectomized animals,substantial and expected increase in eosinophil infiltration,caused a decrease in serum cholesterol,prevented this loss
